Assay results taken from patent US9504676B2, “Molecules inhibiting a metabolic pathway involving the Syk protein tyrosine kinase and method for identifying said molecules” (CENTRE NATIONAL DE LA RECHERCHE SCIENTIFIQUE, priority 2008, dated 2016).
Converted amounts (≈) assume the structure as drawn. Read-outs that look alike come from different tables or passages of the source.

Columns and labels:
BMMC cells = assay: C-13 toxicity test on BMMC cells (Annexin-V and Propidium Iodide); assay type: cell-based; conditions: Staurosporine, 3 hours
Procedure: FIG. 10. Toxicity test of C-13 on BMMC cells. The BMMC cells were incubated at 37° C. in the presence of 2.5 μM or 5 μM of C-13, 0.25% DMF or Staurosporine. The percentages of live BMMC cells after 3 hours and after 5 days were detected by means of double Annexin-V and Propidium Iodide labelling. The viability of BMMC cells incubated in the presence of 2.5 μM or 5 μM of C-13 or 0.25% DMF was not affected to noteworthy degree after 3 hours (78%, 74% and 79% respectively) or five days (62, 56 and 57%, respectively). On the other hand, the viability of BMMC cells treated under the same conditions with Staurosporine was reduced to a level of 16% after only 3 hours.
• 1) Chemical products and antibodies. A chemical bank of 3000 molecules (a varied subset) was acquired from ChemBridge, Inc. (San Diego, Calif.). Stocks of solutions of small molecules were prepared at a rate of 10 mM in DMSO (dimethylsulphoxide), except for C-13 (methyl 2-{5-[(3-benzyl-4-oxo-2-thioxo-1,3-thiazolidin-5-ylidene)methyl]-2-furyl}benzoate, ChemBridge ID No. 6197026) prepared in DMF (dimethylformamide). Unless specified otherwise, all the reagents were supplied by Sigma. Dinitrophenyl (DNP) hapten was acquired from Calbiochem. Sepharose GammaBind G and all the secondary antibodies were supplied by GE Health Amersham Biosciences. The anti-Syk, anti-Lyn, anti-Btk, anti-PLC-γ1, anti-PLC-γ2, anti-LAT, anti-SLP-76, anti-p38, anti-JNK, anti-Vav, anti-Akt1 and 9E10 antibodies conjugated with HRP were acquired from Santa Cruz Biotechnology. The anti-phospho-p44/42 MAP Kinase, anti-p44/42 MAP Kinase, anti-phospho-p38, anti-phospho-JNK, anti-phospho-Akt1 antibodies were acquired from Cell Signaling. The anti-phospho-LAT and anti-phospho-PLC-γ1 antibodies were supplied by Biosource and the anti-phospho-SLP-76 antibodies by BD Pharmingen. The 4G10 anti-phosphotyrosine monoclonal antibody was acquired from Upstate Biotechnology. • 2) ADA method: ELISA type high-speed molecule screening test, based on antibody displacement (WO 2005106481). The recombinant fusion protein GST:Syk 6-242^8 comprising the residues 6 to 242 of murine Syk tyrosine kinase protein illustrated in FIG. 8B (SEQ ID No. 4) was immobilised on an ELISA plate at a final concentration of 10 μg ml^−1. For the screening of the chemical molecule bank, the small molecules, diluted in PBS at a final concentration of 10 μM were added to the wells for one hour at ambient temperature, before adding the fragment scFv G4G11 at a final concentration of 100 nM for an additional hour. The binding of G4G11 with Syk was assessed by adding the 9E10 monoclonal antibody conjugated with HRP detecting the amino acid sequence EQKLISEEDLN of human c-myc protein located at the C-terminal end of the scFv fragment. To generate Syk mutants, targeted mutagenesis was used on GST:Syk 6-242 protein and the binding of G4G11 with the mutants was assessed in the presence of 5 μM of C-13. • 3) Cells, culture conditions and functional tests. Anti-DNP 2682-I mouse monoclonal antibody was used as the culture supernatant of hybridomas containing 1 μg/ml of IgE. Femoral bone marrow cells were sampled and cultured in Opti-MEM medium (Gibco) supplemented with 10% foetal calf serum and 4% X63 transfectant supernatant secreting murine IL-3. RBL-2H3 (ATCC) leukaemic rat basophil cells were maintained in a single-layer culture in RPMI 1640 medium supplemented with 10% foetal calf serum (Gibco). […]

RBL-2H3 cells = assay: cells; assay type: cell-based, rat; conditions: Rattus norvegicus
How it was run: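 RBL-2H3 rat basophils sensitized 12-16 h with anti-DNP IgE (0.5 μg/ml), pretreated 90 min at 37° C with compound (DMF 0.25% vehicle), then stimulated 45 min with DNP-BSA (50 ng ml^−1) or ionomycin (1.5 μM). Degranulation read as β-hexosaminidase release.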

[1] = biological target: T1, murine Syk tyrosine kinase protein (GST:Syk 6-242) (Mus musculus, UniProt P48025); assay: ADA method: displacement of the binding of scFv G4G11 with Syk (ELISA); conditions: read-out: In vit. inhib.: mean inhibition % of the binding of scFv G4G11 with Syk in the ADA method
T1 construct: made in house
How it was run: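 GST:Syk 6-242 (murine) was immobilised at 10 μg ml^−1 and pre-incubated 1 h at ambient temperature with compounds at 10 μM final in PBS. scFv G4G11 was then added at 100 nM for 1 h. Bound scFv was detected via its C-terminal c-myc tag with HRP-9E10, and % inhibition was taken from signals with versus without compound.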

[2] = RBL-2H3 cells, read-out: Degran. IC50: concentration inhibiting mast cell degranulation by 50%
[3] = small molecules at 10 μM, scFv G4G11 100 nM

Compound | IC50 (RBL-2H3 cells; [2]) | inhibition at 10 µM [1, 3] | percentage of live BMMC cells (BMMC cells) | IC50 (RBL-2H3 cells; RBL-2H3, read-out: Degran. IC50: concentration inhibiting mast cell degranulation by 50%) | inhibition at 10 µM [1]
CN[C@@H]1C[C@H]2O[C@@](C)([C@@H]1OC)n1c3ccccc3c3c4c(c5c6ccccc6n2c5c31)C(=O)NC4 [Staurosporine, reference compound] |  |  | 16% |  | 
CC(C)c1ccc(C2C(C(=O)c3ccc(F)cc3)=C(O)C(=O)N2CCCN2CCOCC2)cc1 (centres unmarked) [Molecule 19, 4-(4-fluorobenzoyl)-3-hydroxy-5-(4-isopropylphenyl)-1-[3-(4-morpholinyl)propyl]-1,5-dihydro-2H-pyrrol-2-one] | > 10 µg/mL | 60% |  |  | 
CCN(CC)CCN1C(=O)C(O)=C(C(=O)c2ccc(C)cc2)C1c1cc(OC)ccc1OC (centres unmarked) [Molecule 28, 1-[2-(diethylamino)ethyl]-5-(2,5-dimethoxyphenyl)-3-hydroxy-4-(4-methylbenzoyl)-1,5-dihydro-2H-pyrrol-2-one] | > 10 µg/mL | 54% |  |  | 
O=C(Nc1cccc2ccccc12)OCCn1nnnc1C1(N2CCOCC2)CCCCC1 [Molecule 76, 2-{5-[1-(4-morpholinyl)cyclohexyl]-1H-tetrazol-1-yl}ethyl 1-naphthylcarbamate] | > 10 µg/mL | 27% |  |  | 
COc1ccc(C2C(C(=O)c3ccc(F)cc3)=C(O)C(=O)N2CCN2CCOCC2)cc1OC (centres unmarked) [Molecule 31, 5-(3,4-dimethoxyphenyl)-4-(4-fluorobenzoyl)-3-hydroxy-1-(2-(4-morpholinyl)ethyl]-1,5-dihydro-2H-pyrrol-2-one] | > 10 µg/mL | 50% |  |  | 
COc1cc(C2C(C(=O)c3ccc(Cl)cc3)=C(O)C(=O)N2CCCN2CCOCC2)cc(OC)c1OC (centres unmarked) [Molecule 25, 4-(4-chlorobenzoyl)-3-hydroxy-1-[3-(4-morpholinyl)propyl]-5-(3,4,5-trimethoxyphenyl)-1,5-dihydro-2H-pyrrol-2-one] | > 10 µg/mL | 56.5% |  |  | 
COc1cc(NS(=O)(=O)c2ccc(NC(C)=O)cc2)c(OC)cc1NC(=O)c1ccccc1 [Molecule 21, N-[4-({[4-(acetylamino)phenyl]sulphonyl}amino)-2,5-dimethoxyphenyl] benzamide] | > 10 µg/mL | 58% |  |  | 
COc1ccc(OC)c(C2C(C(=O)c3ccc(C)cc3)=C(O)C(=O)N2Cc2cccnc2)c1 (centres unmarked) [Molecule 11, 5-(2,5-dimethoxyphenyl)-3-hydroxy-4-(4-methylbenzoyl)-1-(3-pyridinylmethyl)-1,5-dihydro-2H-pyrrol-2-one] | > 10 µg/mL | 70.5% |  |  | 
Cc1cc(C)cc(N(CC(=O)N2CCN(Cc3ccccc3)CC2)S(=O)(=O)c2ccccc2)c1 [Molecule 40, N-[2-(4-benzyl-1-piperazinyl)-2-oxoethyl]-N-(3,5-dimethylphenyl)benzenesulphonamide] |  |  |  | > 10 µg/mL | 49.5%

Second part, led by results:

IC50 (RBL-2H3 cells; [2]) | inhibition at 10 µM [1, 3] | Compound | percentage of live BMMC cells (BMMC cells) | IC50 (RBL-2H3 cells; RBL-2H3, read-out: Degran. IC50: concentration inhibiting mast cell degranulation by 50%) | inhibition at 10 µM [1]
> 10 µg/mL | 46% | CCN(CC)CCCN1C(=O)C(O)=C(C(=O)c2ccc3c(c2)OCO3)C1c1cccnc1 (centres unmarked) [Molecule 51, 4-(1,3-benzodioxol-5-ylcarbonyl)-1-[3-(diethylamino)propyl]-3-hydroxy-5-(3-pyridinyl)-1,5-dihydro-2H-pyrrol-2-one] |  |  | 
> 10 µg/mL | 50% | CCOC(=O)c1sc(N2C(=O)C(O)=C(C(=O)c3ccccc3)C2c2ccc(OC)cc2)nc1C (centres unmarked) [Molecule 37, ethyl 2-[3-benzoyl-4-hydroxy-2-(4-methoxyphenyl)-5-oxo-2,5-dihydro-1H-pyrrol-1-yl]-4-methyl-1,3-thiazole-5-carboxylate] |  |  | 
> 10 µg/mL | 26% | COC(=O)c1ccc(NC(=O)CC2C(=O)N(c3ccccc3)C(=O)N2Cc2ccc3c(c2)OCO3)cc1 (centres unmarked) [Molecule 77, methyl 4-({[3-(1,3-benzodioxol-5-ylmethyl)-2,5-dioxo-1-phenyl-4-imidazolidinyl]acetyl}amino)benzoate] |  |  | 
> 10 µg/mL | 46% | COc1cc(C2C(C(=O)c3ccc(C)o3)=C(O)C(=O)N2CCN(C)C)cc(OC)c1OC (centres unmarked) [Molecule 52, 1-[2-(dimethylamino)ethyl]-3-hydroxy-4-(5-methyl-2-furoyl)-5-(3,4,5-trimethoxyphenyl)-1,5-dihydro-2H-pyrrol-2-one] |  |  | 
> 10 µg/mL | 38.5% | O=C1c2ccc(Oc3ccc4c(c3)C(=O)N(CC3CCCO3)C4=O)cc2C(=O)N1CC1CCCO1 (centres unmarked) [Molecule 62, 5,5′-oxybis [2-(tetrahydro-2-furanyl methyl)-1H-isoindole-1,3(2H)-dione]] |  |  | 
~10 µg/mL (≈ 21.6 µM) | 17% | CCN(CC)CCCN1C(=O)C(O)=C(C(=O)c2cc3cccc(OC)c3o2)C1c1ccccn1 (centres unmarked) [Molecule 86, 1-[3-(diethylamino)propyl]-3-hydroxy-4-[(7-methoxy-1-benzofuran-2-yl)carbonyl]-5-(2-pyridinyl)-1,5-dihydro-2H-pyrrol-2-one] |  |  | 
> 10 µg/mL | 50% | COc1ccc(C2C(C(=O)c3ccc(F)cc3)=C(O)C(=O)N2CCN2CCOCC2)c(OC)c1 (centres unmarked) [Molecule 33] |  |  | 
> 10 µg/mL | 50% | COc1ccc(C2C(C(=O)c3ccc(Cl)cc3)=C(O)C(=O)N2CCN2CCOCC2)cc1 (centres unmarked) [Molecule 39, 4-(4-chlorobenzoyl)-3-hydroxy-5-(4-methoxyphenyl)-1-[2-(4-morpholinyl)ethyl]-1,5-dihydro-2H-pyrrol-2-one] |  |  | 
> 10 µg/mL | 50% | CN(C)S(=O)(=O)c1ccc(C(=O)C2=C(O)C(=O)N(CCN3CCOCC3)C2c2ccccc2)cc1 (centres unmarked) [Molecule 32, 4-({4-hydroxy-1-[2-(4-morpholinyl)ethyl]-5-oxo-2-phenyl-2,5-dihydro-1H-pyrrol-3-yl}carbonyl)-N,N-dimethylbenzenesulphonamide] |  |  | 
> 10 µg/mL | 28% | COc1ccc(C2(CNC(=O)c3ccc(NC(=O)c4ccco4)cc3)CCOCC2)cc1 [Molecule 73, N-{4-[({[4-(4-methoxyphenyl)tetrahydro-2H-pyran-4-yl]methyl}amino)carbonyl]phenyl}-2-furamide] |  |  | 
> 10 µg/mL | 48.5% | COc1ccc(OC)c(C2C(C(=O)c3ccc(F)cc3)=C(O)C(=O)N2CCCN2CCOCC2)c1 (centres unmarked) [Molecule 43, 5-(2,5-dimethoxyphenyl)-4-(4-fluorobenzoyl)-3-hydroxy-1-[3-(4-morpholinyl)propyl]-1,5-dihydro-2H-pyrrol-2-one] |  |  | 
> 10 µg/mL | 32% | Cc1ccc(-c2nnc(Nc3cccc(O)c3)c3ccccc23)cc1S(=O)(=O)NC(C)(C)CO [Molecule 67, N-(2-hydroxy-1,1-dimethylethyl)-5-{4-[(3-hydroxyphenyl)amino]-1-phthalazinyl}-2-methylbenzenesulphonamide] |  |  | 
